Experimental data from patent US11358944B2, “Anxiolytic deuterated compound and medical use thereof” (BEIJING JUNKE HUAYUAN MED TECH CO., LTD., priority 2017, dated 2022).

Columns and labels:
Wistar rats = assay: elevated plus-maze test on rats (anxiolytic effect); type: in vivo, rat; details: 30 min after administration, within 5 minutes
Experimental: The anxiolytic effect of the compounds was evaluated using an elevated plus-maze test on rats.
The elevated plus-maze consists of two closed arms and two open arms cross each other with length, width and height respectively of 50 cm, 10 cm and 40 cm.
The central connecting area is 10 cm (length)×10 cm (width), and the maze is 50 cm above the ground, placed in the darker side of the fluorescent lamp and 1 meter away from the lamp. Wistar rats were randomly divided into groups with 5 per group, and the rats were fasted but not deprived of water for 12 hours; The test compound was formulated with 0.5% sodium carboxymethylcellulose into a suspension of certain concentration for intragastric administration. Thirty minutes after administration, the rats were placed in the central connecting area of the maze with the heads facing the direction of the open arms. Then the dwell time of the animals in the open arms within 5 minutes was recorded.

[1] = subacute toxicity, 7-day intragastric administration: blood biochemical and hematological indicators; type: in vivo, rat; details: 60 mg/kg intragastric once a day for 7 days; for plasma ALT compared with control group (Solvent group) / plasma AST compared with control group (Solvent group): SD rats, result in words; for ALT / AST: male Sprague-Dawley rats
Experimental: (§1) Male Sprague-Dawley rats (220-240 g), were randomly divided into groups with 5 per group; The test compound was formulated with 0.5% sodium carboxymethylcellulose into a preparation of a concentration of 60 mg/kg for intragastric administration once a day and continuously for 7 days. After the last administration, the SD rats were fasted but not deprived of water for 12 hours, and anesthetized. Their blood samples were obtained from the abdominal aortas and made to serum samples for determination of blood biochemical indicators and immunological indicators; EDTA Anticoagulated blood was prepared for general blood routine determination. Referring to the method of the literature (En Li, et al. Effect of buagafuran on liver microsomal cytochrome P450 in rats. J Asian Natural Products Research. 2010; 12: 371-381.), liver microsome was prepared from the liver taken, and the activity of CYP isoenzyme was determined using a probe substrate. The relative enzymatic activity of the test compound was calculated by taking the activity of the solvent group as 1.

CYP1A1 = assay: induction of liver metabolic enzyme, liver microsome probe substrate activity after 7-day administration; type: in vivo, rat; details: 60 mg/kg intragastric once a day for 7 days; for Relative enzyme activity CYP1A1: rat liver microsome, solvent group = 1; for activity of metabolic enzyme CYP1A1 in the liver compared with solvent group: result in words
Experimental: as §1

CYP2E1 [2] = assay: as above; type: in vivo, rat; details: 60 mg/kg intragastric once a day for 7 days; for Relative enzyme activity CYP2E1: rat liver microsome, solvent group = 1; for activity of metabolic enzyme CYP2E1 in the liver compared with solvent group: result in words
Experimental: as §1

[3] = background statement; cited from earlier work
[4] = background statement; cited from earlier work; remark: listed apart in the source
CYP1A2 = details: literature, rats; cited from earlier work
CYP2E1 [5] = details: literature, rats; cited from earlier work

Compound | dwell time in the open arms (Wistar rats; 1 mg/kg intragastric) | dwell time in the open arms (Wistar rats; 2 mg/kg intragastric) | dwell time in the open arms (Wistar rats; 4 mg/kg intragastric) | plasma ALT compared with control group (Solvent group) [1] | plasma AST compared with control group (Solvent group) [1] | ALT [1] | AST [1] | Relative enzyme activity CYP1A1 (CYP1A1) | activity of metabolic enzyme CYP1A1 in the liver compared with solvent group (CYP1A1) | Relative enzyme activity CYP2E1 (CYP2E1 [2]) | activity of metabolic enzyme CYP2E1 in the liver compared with solvent group (CYP2E1 [2]) | anxiolytic activity [3] | oral bioavailability [4] | induction effect on liver cytochrome P450 metabolic enzyme CYP1A2 (CYP1A2) | induction effect on liver cytochrome P450 metabolic enzyme CYP2E1 (CYP2E1 [5])
[2H]C1=C(C([2H])([2H])C([2H])([2H])C([2H])([2H])C([2H])([2H])[2H])[C@@]23C[C@@H](CC[C@]2(C)CC1)C(C)(C)O3 [I-6, d10-BAF] | 73.3 ± 17.6 s | 71.4 ± 19.1 s | 66.3 ± 19.6 s | – | – | – | – | – | – | – | – | – | – | – | –
[2H]C1=C(C([2H])([2H])C([2H])([2H])C([2H])([2H])C([2H])([2H])[2H])[C@@]23C[C@@H](CC[C@]2(C)CC1([2H])[2H])C(C)(C)O3 [I-8, d12-BAF] | 70.7 ± 23.2 s | 76.9 ± 14.4 s | 72.3 ± 17.8 s | – | – | – | – | – | – | – | – | – | – | – | –
CCCCC1=CCC[C@@]2(C)CC[C@@H]3C[C@]12OC3(C)C [BAF, 4-butyl-α-agarofuran, reference compound] | 26.7 ± 27.0 s | 45.2 ± 39.7 s | 69.0 ± 49.0 s | significantly increased | significantly increased | 189.0 U/L | 258.7 U/L | 3.8 | significantly increased | 1.7 | significantly increased | significant anxiolytic activity | low | significant induction effect | significant induction effect
[2H]C1([2H])C=C(C([2H])([2H])C([2H])([2H])C([2H])([2H])C([2H])([2H])[2H])[C@@]23C[C@@H](CC[C@]2(C)C1)C(C)(C)O3 [I-7, d11-BAF] | 77.5 ± 23.3 s | 72.6 ± 18.6 s | 73.8 ± 11.0 s | no significant differences | no significant differences | 48.7 U/L | 107.7 U/L | 1.1 | not significantly different | 0.9 | not significantly different | – | – | – | –
[2H]C1([2H])C=C(CCCC)[C@]23OC(C)(C)[C@H](CC[C@]2(C)C1)C3([2H])[2H] [I-3, d4-BAF] | 52.5 ± 26.0 s | 67.2 ± 22.0 s | 42.7 ± 25.1 s | – | – | – | – | – | – | – | – | – | – | – | –
[2H]C1=C(CCCC)[C@@]23C[C@@H](CC[C@]2(C)CC1([2H])[2H])C(C)(C)O3 [I-2, d3-BAF] | 45.6 ± 19.1 s | 69.7 ± 29.8 s | 39.0 ± 25.7 s | no significant differences | no significant differences | 74.0 U/L | 115.4 U/L | 1.4 | not significantly different | 1.0 | not significantly different | – | – | – | –
[2H]C1([2H])C=C(CCCC)[C@@]23C[C@@H](CC[C@]2(C)C1)C(C)(C)O3 [I-1, d2-BAF] | 48.6 ± 21.7 s | 68.4 ± 30.8 s | 47.5 ± 23.6 s | no significant differences | no significant differences | 116.1 U/L | 163.9 U/L | 1.7 | not significantly different | 1.2 | not significantly different | – | – | – | –
[2H]C([2H])([2H])C([2H])([2H])C([2H])([2H])C([2H])([2H])C1=CCC[C@@]2(C)CC[C@@H]3C[C@]12OC3(C)C [I-5, d9-BAF] | 72.0 ± 15.8 s | 71.2 ± 15.3 s | 76.5 ± 16.0 s | no significant differences | no significant differences | 56.6 U/L | 137.2 U/L | 1.3 | not significantly different | 1.2 | not significantly different | – | – | – | –
